{"source": "patent US20240252520A1", "about": "(priority 2023, published 2024)", "key": {"db/db mouse model [1]": {"system": "db/db mouse model", "assay": "Receptor agonists and antagonists on db/db mouse wounds, day 5 sacrifice", "conditions": "2 mg/kg topically daily with blk-gel; Chrm1, Chrm3 or α7nAChR agonist"}, "keratinocytes [2]": {"system": "keratinocytes", "assay": "Nicotinic and muscarinic receptor gene expression, keratinocytes", "conditions": "48 hours"}, "acute porcine wounds": {"system": "acute porcine wounds", "assay": "Metrifonate eluting dressings on acute porcine wounds over 20 days"}, "[3]": {"system": "THP-1 derived macrophages", "assay": "Cytokine gene expression in THP-1 derived macrophages polarized to M0, M1, M2", "assay_type": "cell-based, human", "from_the_text": "(§1) This concentration was selected for all subsequent experiments (FIG. 24A)."}, "[4]": {"conditions": "oral 30-60 mg daily up to 26 weeks; cited from earlier work"}, "fibroblasts [5]": {"system": "fibroblasts", "assay": "Nicotinic and muscarinic receptor gene expression, fibroblasts", "conditions": "48 hours"}, "[6]": {"molecular_target": "T1, Acetylcholinesterase (AchE) (Mus musculus, UniProt P21836)", "T1 construct": "measuring the levels of the enzyme on Day 5 in mouse wounds lysates; from tissue; host or cells: skin wound tissue lysate of db/db mice, Day 5 after wounding", "T1 sequence (P21836 32-614)": "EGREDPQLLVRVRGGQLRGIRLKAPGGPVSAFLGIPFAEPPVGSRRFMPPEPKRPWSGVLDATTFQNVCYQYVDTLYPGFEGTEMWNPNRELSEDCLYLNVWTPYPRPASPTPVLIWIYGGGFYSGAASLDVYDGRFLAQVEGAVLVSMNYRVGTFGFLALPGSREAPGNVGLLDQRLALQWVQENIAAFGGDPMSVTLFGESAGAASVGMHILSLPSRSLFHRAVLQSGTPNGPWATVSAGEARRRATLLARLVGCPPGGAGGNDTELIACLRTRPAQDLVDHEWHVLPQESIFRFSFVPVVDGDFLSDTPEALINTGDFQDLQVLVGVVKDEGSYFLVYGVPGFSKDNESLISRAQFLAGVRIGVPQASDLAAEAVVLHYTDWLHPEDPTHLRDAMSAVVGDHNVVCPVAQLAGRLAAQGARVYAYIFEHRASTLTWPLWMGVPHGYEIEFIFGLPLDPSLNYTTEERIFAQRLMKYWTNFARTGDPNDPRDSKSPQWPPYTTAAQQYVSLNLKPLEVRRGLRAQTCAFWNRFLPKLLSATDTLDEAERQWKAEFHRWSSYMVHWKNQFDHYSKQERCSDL", "assay": "AchE activity in Day 5 mouse wound lysates", "assay_type": "in vivo", "conditions": "Day 5, 2 days after bandage removal"}, "db/db mouse model [7]": {"system": "db/db mouse model", "assay": "LD-Met gel in db/db mice, Day 5 and Day 10 wound analyses", "assay_type": "in vivo", "conditions": "Day 5"}, "diabetic humanized mice": {"system": "diabetic humanized mice", "assay": "Metrifonate hydrogel on diabetic humanized mice wounds", "assay_type": "in vivo, mouse", "from_the_text": "These genes are well known to improve impaired diabetic wound healing, see Berry-Kilgour et al., Advancements in the Delivery of Growth Factors and Cytokines for the Treatment of Cutaneous Wound Indications; Adv Wound Care (New Rochelle) 2021; 10(11):596-622. Epub 20201125. doi:10/1089?wound.2020.1183. PubMed PMID:33086946: PMCID: PMC8392095.\nTo generate a humanized skin graft mice model, Foxn1nu nude male mice of 6 weeks old can be used as the recipient animals. These mice are devoid of T cells and suffer from a lack of cell-mediated immunity making them a model of choice for xenograft studies. […] Following the sustained diabetic state period, wounds are inflicted on the transplanted human skin with a 3 mm punch biopsy, treatment options include the best two Metrifonate-Hydrogel dressings, previously determined by the mice and pig studies for the preferred two doses. […] Wound healing can be monitored using standardized photography daily during the course of 3, 5 and 10 days. […]\nTo generate a humanized skin graft mice model, Foxn1nu nude male mice of 6 weeks old can be used as the recipient animals. […] Following the sustained diabetic state period, wounds are inflicted on the transplanted human skin with a 3 mm punch biopsy, treatment options include the best two Metrifonate-Hydrogel dressings, previously determined by the mice and pig studies for the preferred two doses. […]"}, "keratinocytes [8]": {"system": "keratinocytes", "assay": "Wound healing scratch assay of keratinocytes with metrifonate", "assay_type": "cell-based", "conditions": "10 μg/ml, after 24 hours", "protocol": "as §1\nKeratinocyte HaCaT cells (ATCC) are cultured in complete medium (Dulbecco's Modified Eagle Medium with 10% Fetal Bovine Serum, 100U/L penicillin, and 100 ug/L streptomycin) at 37° C. in 5% CO2. The cells are passaged every 5 days using 0.025% trypsin-ethylenediaminetetraacetic acid (Life Technologies) detachment and plated at 100,000 cells per well in 24-well plates. The cell monolayer is scratched in a straight line using a P200 pipette tip. […] Images are taken immediately after the scratch (0 h), in 6 h, 12 h, 24 h, 48 h, and 72 h for at least four wells per condition. Scratch areas are analyzed using ImageJ/FIJI. At least three independent experiments are performed. All AchE inhibitors are expected to promote faster wound coverage up to the concentration of 10 μg/ml."}, "fibroblasts [9]": {"system": "fibroblasts", "assay": "Alamar Blue assay of fibroblast metabolic activity", "assay_type": "cell-based, human", "conditions": "over three days after treatment", "from_the_text": "as §1\nFollowing the in silico prioritization of metrifonate as a key compound in promoting wound healing, we determined if addition of metrifonate influenced key cell functions in tissue cultures of cells that are implicated in wound healing, such as fibroblasts, keratinocytes and macrophages.\nIn a further example, an alamarBlue™ Assay can be used as follows: Human dermal fibroblasts (immortalized cell line, abm Cat. No. T0904) are cultured in complete medium (PriGrow III with 10% Fetal Bovine Serum, 100U/L penicillin, and 100 ug/L streptomycin) at 37° C. in 5% CO2. The cells are passaged every 7 days using 0.025% trypsin-ethylenediaminetetraacetic acid (Life Technologies) and plated at 10,000 cells per well in 96-well plates. […] Cell viability is determined by alarmarBlue™ (Invitrogen) after 48h, and 72h of incubation. Briefly, after 48 or 72h of incubation the media containing inhibitors is removed and replaced with 10% v/v alamarBlue™ in complete media and the plate is incubated at 37° C. for further 24 h. After this incubation period, plates are read at an excitation range of 540-570 nm and an emission range of 580-610 nm. All AchE inhibitors are expected to not negatively affect cell proliferation up to the concentration of 10 μg/ml."}, "[10]": {"system": "THP-1 monocyte derived macrophages", "assay": "Nicotinic and muscarinic receptor gene expression, THP-1 monocyte derived macrophages", "conditions": "48 hours"}, "diabetic db/db mice": {"system": "diabetic db/db mice", "assay": "LNP-FGF2, LNP-IL-2, LNP-CHI3L1, LNP-IL-17A mRNA bandages in db/db mice (Example 15)", "assay_type": "in vivo, mouse", "quoted_text": "Two 6-mm punch biopsy full-thickness wounds were created on the dorsum of 16-week-old diabetic db/db mice (FIG. 19A). Macroporous bandages loaded with 4 μg of LNP-FGF2, LNP-IL-2, LNP-CHI3L1, and LNP-IL-17A mRNA were topically applied on the wounds for 10 days. […] The wound size was measured every three days."}}, "note": "“Also recorded” adds a separate entry of the source.", "data": [{"molecule": "C[N+](C)(C)CC#CCOC(=O)Nc1cccc(Cl)c1.[Cl-]", "note": "[McN-A 343]", "values": [{"measurement": "effect of agonist on wound healing", "setting": "db/db mouse model [1]", "value": "promoted the wound healing; also recorded: accelerated wound healing"}]}, {"molecule": "O=C(N[C@H]1CN2CCC1CC2)c1ccc(Cl)cc1", "note": "[PNU-282987]", "values": [{"measurement": "effect of agonist on wound healing", "setting": "db/db mouse model [1]", "value": "only the M1 agonist accelerated wound healing"}]}, {"molecule": "COP(=O)(OC)C(O)C(Cl)(Cl)Cl", "note": "(stereo not shown) [metrifonate, (2,2,2-trichloro-1-hydroxyethyl) dimethylphosphonate]", "values": [{"measurement": "receptor gene expression", "setting": "keratinocytes [2]", "value": "up-regulation of CHRM3 and CHRNB4 receptors"}, {"measurement": "adverse effects", "setting": "acute porcine wounds", "value": "did not induce any adverse effects"}, {"measurement": "wound lengths in histological assessment", "setting": "acute porcine wounds", "value": "shorter wound lengths"}, {"measurement": "increase in IL10 gene expression", "setting": "[3]; M0 macrophages", "value": 30, "unit": "fold"}, {"measurement": "downregulation of IL1b", "setting": "[3]; M1 cells", "value": 12, "unit": "fold"}, {"measurement": "downregulation of TNF", "setting": "[3]; M1 cells", "value": 40, "unit": "fold"}, {"measurement": "increase in IL10 gene expression", "setting": "[3]; M2 macrophages", "value": 10, "unit": "fold"}, {"measurement": "clinical effect in mild-to-moderate Alzheimer's disease", "setting": "[4]", "value": "beneficial effect"}, {"measurement": "receptor gene expression", "setting": "fibroblasts [5]", "value": "activation of CHRNA4; also recorded: increased expression of CHRNA4"}, {"measurement": "Acetylcholinesterase (AchE) activity in wounds", "setting": "[6]", "value": "inhibits the activity of Acetylcholinesterase (AchE)"}, {"measurement": "total and degranulated mast cells (toluidine blue staining)", "setting": "db/db mouse model [7]", "value": "enrichment of both total and degranulated mast cells"}, {"measurement": "wound healing", "setting": "diabetic humanized mice; low dose hydrogel vs blank hydrogel, D0 to D7", "value": "improved wound healing"}, {"measurement": "expression of Il10, Arg and human gene VEGFA (RT-qPCR)", "setting": "diabetic humanized mice; upon sacrifice", "value": "increased the expression"}, {"measurement": "keratinocyte migration / scratch wound closure", "setting": "keratinocytes [8]", "value": "significantly accelerate migration"}, {"measurement": "metrifonate concentration that began to negatively affect viability", "setting": "fibroblasts [9]", "value": "over 10 μg/ml"}, {"measurement": "receptor gene expression", "setting": "[10]; M0 cells", "value": "activation of CHRM3 receptor; also recorded: up-regulation of CHRM3 receptor"}, {"measurement": "receptor gene expression", "setting": "[10]; M1 cells", "value": "activation of CHRM4; also recorded: higher expression of CHRM4 and CHRNA3 receptors"}]}, {"molecule": "CHI3L1 protein: bandages loaded with CHI3L1 protein employed as additional control", "values": [{"measurement": "wound healing during the whole period vs blank bandage (repeated measurement analysis)", "setting": "diabetic db/db mice; 4 μg bandage, D0 to D10", "value": "no differences in wound healing"}, {"measurement": "wound reduction on Day 10", "setting": "diabetic db/db mice; Day 10, compared with blank", "value": "similar"}]}, {"molecule": "LASSBIo0897", "values": [{"measurement": "effect of agonist on wound healing", "setting": "db/db mouse model [1]", "value": "only the M1 agonist accelerated wound healing"}]}]}
